assay: Intrinsic affinity towards serotonin receptor from rat frontal cortex by displacement of [3H]spiperone.

Compound | Ki
FC(F)(F)c1ccc2c(c1)N1CCNCC1CC2 (stereo not drawn) [9-Trifluoromethyl-2,3,4,4a,5,6-hexahydro-1H-pyrazino[1,2-a]quinoline] | 136 nM
Clc1cncc(N2CCNCC2)n1 [L-630,571] | 6000 nM
FC(F)(F)c1cccc(N2CCNCC2)c1 [TFMPP] | 298 nM
